From PubChem BioAssay AID493191 (Broad Institute, 2011)

system: MALME3 melanoma viability, CellTiter-Glo luminescence, 24 h; test: growth inhibition of MALME3 cells – cell-based, CellTiter-Glo, cherry-picked, orthogonal assay for MITF inhibitor project, dose response (AID 493191)

SMILES | AC50
Cc1ccc(Cn2c(=N)n(CC(=O)c3ccc([N+](=O)[O-])cc3)c3ccccc32)cc1 | 18.6 µM
Cc1ccc(NC(=O)c2cc(N3C(=O)C=CC3=O)ccc2N2CCOCC2)cc1Cl | 23.5 µM
Cc1ccc(NC(=O)CN(C)C(=O)Cn2ncc(Cl)c(Cl)c2=O)cc1 | 8.81 µM
Cc1c(C(=O)Nc2ccc(S(=O)(=O)N(C)C3CCN(C)CC3)cc2)oc2c(Cl)cccc12 | 26.4 µM
C/C(=N/NC(=O)C(O)(c1ccccc1)c1ccccc1)c1ccc([N+](=O)[O-])o1 | 34.1 µM
CC(=O)Cn1ncc(Br)c(Br)c1=O | 14.6 µM
O=C(Cn1ncc(Cl)c(Cl)c1=O)Nc1ccc2c(c1)OCO2 | 25.1 µM
O=C1C(Nc2ccccc2)=C(N2CCCCC2)C(=O)c2ccccc21 | 18.2 µM
OC(CNCC(c1ccc(Cl)cc1Cl)c1c[nH]c2ccccc12)c1ccccc1 (stereo not drawn) | 19.1 µM
CCOC(=O)c1c(C)oc2c1C(=O)c1ccccc1C2=O | 7.25 µM
O=C1c2cc(F)ccc2-n2c1nc1ccccc1c2=O | 4.39 µM
CCN1/C(=C/c2cc[n+](C)cc2)C=Cc2cc(C)ccc21 | 16.9 µM
O=C1c2cc([N+](=O)[O-])cc3cc([N+](=O)[O-])cc(c23)C(=O)N1c1ccccn1 | 21.9 µM
COc1ccccc1OCC(=O)N/N=C/C=C/c1ccc([N+](=O)[O-])o1 | 20.6 µM
CN(C)CC1CC/C(=C\c2ccc(O)cc2)C1=O (stereo not drawn) | 25.9 µM
CCN(CC)CCCNC1=C(Cl)C(=O)c2ccccc2C1=O | 5.64 µM
Cc1ccc(NC(=O)CCl)cc1S(=O)(=O)N1CCCCCC1 | 18.1 µM
Cc1ccc(C(C)C)c(OCc2nn(CC(=O)c3ccc(Cl)cc3)c3[n+]2CCCCC3)c1 | 18.4 µM
COc1ccc(S(=O)(=O)N(C(C)=O)c2ccc(OC(C)=O)c3ccccc23)cc1[N+](=O)[O-] | 18.1 µM
Cn1cc([N+](=O)[O-])c(C(=O)Nc2nc(-c3ccc(Cl)cc3)cs2)n1 | 26.5 µM
COc1cc(CNC2CCCC2)cc(Cl)c1OCc1ccccc1Cl | 17.6 µM
Cc1ccc2nc(C)cc(Nc3ccc([N+](=O)[O-])cc3)c2c1 | 31.5 µM

SMILES | AC50
Oc1ccc(CNc2ccccc2F)c2cccnc12 | 28.2 µM
O=C(Nc1cccc(S(=O)(=O)N2CCCCC2)c1)c1ccc([N+](=O)[O-])o1 | 15.9 µM
CC(=O)c1c(C)oc2c1C(=O)c1ccccc1C2=O | 21.2 µM
O=[N+]([O-])c1ccc(/C=N/n2cnc3ccccc32)s1 | 8.99 µM
CCOC(=O)c1ccc(NC(=O)c2nc(S(=O)(=O)Cc3ccccc3)ncc2Cl)cc1 | 4.47 µM
CC(=O)OCCNc1cc(Sc2nc3ccccc3[nH]2)c2nonc2c1[N+](=O)[O-] | 13.6 µM
CC1CC2(C)Oc3ccccc3CC2C(C)C1CNCCCN(C)C (stereo not drawn) | 15.9 µM
S=C=Nc1cccc(C2(N3CCCCC3)CCCCC2)c1 | 26 µM
O=C1Nc2cc(C(=O)NCCN3CCCCCC3)ccc2S/C1=C\c1ccccc1 | 28.4 µM
Cn1nnnc1Sc1ncnc2scc(-c3ccc(C#N)cc3)c12 | 28.5 µM
Cc1ccc(C(=O)N/N=C/c2ccc([N+](=O)[O-])s2)cc1 | 22.6 µM
O=C(Nc1ccc2oc(-c3cccnc3)nc2c1)c1ccc([N+](=O)[O-])o1 | 25.9 µM
Cc1ccc(NC(=O)c2cc(N3C(=O)C=CC3=O)ccc2N2CCOCC2)cc1 | 10.1 µM
COc1ccc(C(=O)/C=C/C(=O)N(CC(=O)NC2CCCCC2)Cc2cccs2)c(O)c1 | 5.25 µM
CC1CCC/C=C/C(=O)c2c(O)cc(O)cc2CC(=O)O1 (stereo not drawn) | 21.2 µM
O=C(Cc1ccc2c(c1)OCO2)NN=Cc1ccc([N+](=O)[O-])o1 | 19.1 µM
Cc1ccc(C(O)(c2ccc(C)c(C)c2)C2CN3CCC2CC3)cc1C (stereo not drawn) | 22.7 µM
Cc1ccc(C)c(NC(=O)/C(C#N)=C/c2cn(CC(=O)NCc3ccco3)c3ccccc23)c1 | 18.6 µM
Cc1ccc(C(=O)N/C(=C\c2ccc(-c3ccc(Br)cc3)o2)C(=O)NCCCN(C)C)cc1 | 14.2 µM
CN(C)c1nc(C=C(C#N)C#N)c(Cl)n1-c1ccc(F)cc1 | 21.2 µM
O=C(N/N=C/c1ccc([N+](=O)[O-])s1)c1cccc(Br)c1 | 29.9 µM
CCCC(=O)N1CCN(c2ccc(NC(=O)c3ccc([N+](=O)[O-])o3)cc2Cl)CC1 | 14.4 µM

SMILES | AC50
CC(=O)Nc1ccc(NC(=O)c2nc(S(=O)(=O)Cc3ccccc3)ncc2Cl)cc1 | 5.12 µM
C=Cc1ncc(OC)c2c1[nH]c1ccccc12 | 31.5 µM
O=C(CNc1cccc2ccccc12)N/N=C/c1ccc([N+](=O)[O-])o1 | 16.3 µM
CC1=NNC(=O)/C1=C\c1cn(-c2ccccc2)nc1-c1ccc(F)cc1 | 25.9 µM
O=C(Cn1ncc(Cl)c(Cl)c1=O)c1ccc(Cl)cc1 | 26.5 µM
CCOC(=O)c1nnn(-c2ccc([N+](=O)[O-])cc2[N+](=O)[O-])c1C | 16 µM
CC1CCC(C(C)C)C(OC(=O)Cn2c(-c3ccc(Br)cc3)[n+](C)c3ccccc32)C1 (stereo not drawn) | 10.1 µM
CN(C)CCCNC(=O)/C(=C\c1ccc(-c2ccc(Br)cc2)o1)NC(=O)c1ccccc1 | 16.3 µM
CCCCn1c(=N)n(CCOc2ccc(C)cc2)c2ccccc21 | 26.5 µM
CC(=O)Nc1ccc(Nc2c3ccccc3nc3ccccc23)cc1 | 25.2 µM
CC(=O)N(C)C1=C(N2CCOCC2)C(=O)c2ccccc2C1=O | 12.7 µM
CN(C)CCCN(C(=O)CCc1ccccc1)c1nc2ccc(Br)cc2s1 | 19.2 µM
CNC(=O)COC(=O)c1ccccc1C(=O)c1ccc(Cl)c([N+](=O)[O-])c1 | 23.8 µM
CCOC(=O)c1ccc(NC2=CC(=O)C(=O)c3ccccc32)cc1 | 5.16 µM
CC(NC(=O)c1ccc([N+](=O)[O-])o1)C12CC3CC(CC(C3)C1)C2 (stereo not drawn) | 31.9 µM
O=C(Nc1ccc(N2CCN(C(=O)c3ccccc3)CC2)cc1)c1ccc([N+](=O)[O-])o1 | 9.02 µM
CCN1CCN(CCCNC(=O)c2ccc3c(c2)NC(=O)/C(=C\c2cccc(C)c2)S3)CC1 | 28.1 µM
O=C(Nc1ccccc1N1CCN(C(=O)c2ccccc2)CC1)c1ccc([N+](=O)[O-])o1 | 27.1 µM
COc1cc(/C=N/N=C(N)N)ccc1OCc1ccc(Cl)cc1 | 19.9 µM
Cn1c(SC2=CS(=O)(=O)c3ccccc32)nc2ccccc21 | 19.7 µM
Cc1ccccc1-c1nc(-c2ccccn2)no1 | 22.2 µM
CC(C)Oc1ccc(C(CCNCc2ccc(O)cc2)c2ccccc2)cc1 (stereo not drawn) | 32.9 µM

SMILES | AC50
CCOC(=O)CCc1ccc(NC(=O)/C=C/c2ccc([N+](=O)[O-])o2)cc1 | 13.9 µM
CC(C)(C)c1ccc(Cn2c(=N)n(CC(O)c3ccco3)c3ccccc32)cc1 (stereo not drawn) | 18.3 µM
Cc1cc(C)cc(OCC(=O)N/N=C/c2ccc([N+](=O)[O-])o2)c1 | 22.9 µM
Cc1oc(-c2ccc(Cl)cc2)nc1CN1CCC(C(=O)NCCCN2CCCC(C)C2)CC1 (stereo not drawn) | 24.4 µM
CCNC1=C(Cl)C(=O)c2ccccc2C1=O | 15.3 µM
CCN(CC)CCNC(=O)c1ccc(NC(=O)c2cn(-c3ccccc3)nc2-c2cccs2)cc1 | 17.8 µM
O=C1CN(C(=O)Cn2ncc(Cl)c(Cl)c2=O)c2ccccc2N1 | 15.4 µM
O=C(CCl)N(c1ccccc1)C1CCCCC1 | 20.1 µM
CC(=O)N1CCc2c(sc(NC(=O)c3ccc([N+](=O)[O-])o3)c2C#N)C1 | 9.37 µM
COc1ccc(C(CCNC(C)c2ccccc2)c2ccc(F)cc2)cc1 (stereo not drawn) | 16.7 µM
Cc1ccc(S(=O)(=O)N2CCCCC2)cc1NC(=O)Cn1ncc(Cl)c(Cl)c1=O | 6.08 µM
CC(C)C1CC(CCNCc2ccc(N(C)C)cc2)(c2ccccc2)CCO1 (stereo not drawn) | 29.5 µM
O=C1NC2c3c(I)sc(I)c3C(=O)C2O1 (stereo not drawn) | 16.6 µM
CN(C)CCNC(=O)/C(=C/c1ccc(-c2ccc(Cl)cc2Cl)o1)NC(=O)c1ccccc1 | 18 µM
COc1ccccc1NS(=O)(=O)c1cccc(C(=O)N/N=C/c2ccc([N+](=O)[O-])o2)c1 | 14.6 µM
N=c1n(CC(=O)c2ccc([N+](=O)[O-])cc2)c2ccccc2n1Cc1ccc(Cl)cc1 | 17.2 µM
CCCCC[n+]1ccn(C2=C([O-])c3ccccc3C(=O)/C2=N\S(=O)(=O)c2ccccc2)c1 | 14.2 µM
O=C(CS(=O)c1ccc(C(F)(F)F)cc1[N+](=O)[O-])Oc1ccccc1 (stereo not drawn) | 20.7 µM
Cc1cccc(NC2=C(NC(=O)c3ccccc3)C(=O)c3ccccc3C2=O)c1 | 25.3 µM
Cc1cc(C)c2c(N)c3cccc(C)c3nc2n1 | 27.9 µM
CCOC(=O)c1c(C)oc2c(F)c(F)c(F)c(F)c2c1=O | 19.4 µM
Cn1c(SCC(=O)N/N=C/c2ccc([N+](=O)[O-])s2)nnc1-c1ccccc1 | 14.7 µM

SMILES | AC50
CS(=O)(=O)c1ccc(S(=O)CC(=O)OCc2ccccc2)c([N+](=O)[O-])c1 (stereo not drawn) | 20 µM
CC(C)=NOc1cc(NC(=O)CCl)cc([N+](=O)[O-])c1 | 5.64 µM
CC1CCC(C(C)C)C(OC(=O)Cn2c(-c3ccc(F)cc3)[n+](C)c3ccccc32)C1 (stereo not drawn) | 12.5 µM
Cc1ccc(S(=O)(=O)/N=C2\C(=O)c3ccccc3C([O-])=C2n2cc[n+](CCC(C)C)c2)cc1 | 11.4 µM
N#CC(C#N)=C1C=CC=CN1/C(=C\c1ccco1)C(=O)c1ccc(Cl)cc1 | 27.3 µM
O=C1/C(=C/c2ccccc2[N+](=O)[O-])COc2ccccc21 | 25.3 µM
CC(=O)Nc1sc(C)c(C)c1C(=O)OCC(=O)N(CC(C)C)c1c(N)n(Cc2ccccc2)c(=O)[nH]c1=O | 6.17 µM
COc1ccc(C(=O)/C=C/C(=O)N(CC(=O)NC2CCCCC2)Cc2ccc(F)cc2)c(O)c1 | 7.85 µM
CC(C)(c1ccccc1)c1ccc(OCC(O)CNC2CCN(Cc3ccccc3)CC2)cc1 (stereo not drawn) | 13.5 µM
CCN1c2ccccc2NC2N=C(OC)C(c3ccccc3)C21 (stereo not drawn) | 7.13 µM
Cc1ccccc1OCC(=O)N/N=C/c1ccc([N+](=O)[O-])o1 | 26.3 µM
COc1cc(NC(=O)c2ccc([N+](=O)[O-])o2)ccc1NC(=O)c1cccs1 | 13.1 µM
O=[N+]([O-])c1cccc2c(N3CCCC3)ccnc12 | 4.82 µM
Cc1ccc2sc(N(CCCN(C)C)C(=O)c3ccc(S(=O)(=O)N(C)C4CCCCC4)cc3)nc2c1C | 18.1 µM
Cc1cc(C(C)(C)C)cc(C)c1Cn1c2[n+](c3ccc(C(F)(F)F)cc31)CCCCC2 | 24.6 µM
O=C(Cn1ncc(Cl)c(Cl)c1=O)NC1CCCCC1 | 24.8 µM
CCOCCCNC(=O)/C(C#N)=C/c1ccc([N+](=O)[O-])o1 | 12.6 µM
CCCC(=O)N1CCN(c2ccc(NC(=O)c3ccc([N+](=O)[O-])o3)cc2)CC1 | 8.62 µM
COc1ccc(S(=O)(=O)N2CCCCC2)cc1NC(=O)c1ccc([N+](=O)[O-])o1 | 14.3 µM
COc1cc(/C=N/NC(N)=O)c(Br)cc1OCC(=O)Nc1ccccc1C | 29.4 µM
